Measurements: patent US9969771B2, “Tetrapeptide having effect of inhibiting VEGF-induced angiogenesis and use thereof” (AVIXGEN INC., priority 2015, dated 2018)
pIC50: −log10 of the molar value. Where a SMILES comes first, the peptide text is derived from it. Where no end group is shown, it is not given here. The star is where a group is joined. FITC = O=C1OC2(c3ccc(O)cc3Oc3cc(O)ccc32)c2ccc(NC(=S)*)cc21

Assays:
HUVECs [1] = assay: VEGF-induced HUVEC proliferation, [3H]-thymidine incorporation assay; type: cell-based, human; conditions: for pIC50: 3 h; for inhibition of VEGF-induced HUVEC proliferation: VEGF 10 ng/ml, [3H]-thymidine incorporation
Experimental: Human umbilical vein endothelial cells (HUVECs) were cultured in M199 medium, and during experiments, the cells were always used at passages 2 to 7. Meanwhile, mouse melanoma cells (B16F1 and B16F10) and human colorectal tumor cells (HCT116) were cultured in RPMI media supplemented with 10% FBS, 1 mM sodium pyruvate, 10 mM 4-(2-hydroxyethyl)-1-piperazineethanesulfonic acid and 100 U/ml penicillin-streptomycin, and human multiple myeloma cells (IM-9 and RPMI 8226) were cultured in RPMI-1640 media. All of the cells were cultured at 37° C. with 5% CO2 in a humidified incubator.
Angiogenic activity was determined by measuring cell proliferation, migration and tube formation. HUVEC proliferation was analyzed by a [3H]-thymidine incorporation assay. The HUVECs were seeded in a 24-well plate coated with gelatin at a density of 2×10^4 cells/well. […] […] […] 3H-labeled polymer DNA was evaluated with a liquid scintillation counter.

ERK = assay: Western blot, ERK phosphorylation in HUVECs; type: cell-based, human; conditions: VEGF / VEGF-A stimulated
Experimental: Cells were lyzed in RIPA buffer, and 50 μg of proteins were isolated by SDS-PAGE and then transferred to a PVDF membrane. The membrane was reacted with an antibody with respect to a target protein for 2 hours. The membrane was washed twice and reacted with a horseradish peroxidase-conjugated antibody, and then an amount of the target proteins was assessed with an enhanced chemiluminescence system.

zebrafish = assay: Zebrafish angiogenesis assay; type: in vivo; conditions: zebrafish embryo
Experimental: An adult zebrafish and an embryo were grown and maintained in a standard laboratory environment, and a zebrafish experiment was conducted according to the protocols approved by the animal ethics committee of Chungnam National University. To analyze angiogenesis, at 48 hours post fertilization (hpf), the embryo was anesthetized with tricaine (MS-222, 0.02%, embryo buffer), a peptide was administered, and FITC-dextran (2,000 kDa, Sigma) was further injected. A blood vessel image was obtained with a Leica DM5000B system at 72 hpf. As a probe for whole mount in situ hybridization, digoxigenin (DIG)-labeled RNA prepared by a cad5 (NM_001003983) gene was used. Meanwhile, a peptide was injected into the 18-hpf embryo collected at 25 hpf, fixed with 4% paraformaldehyde, washed with PBS (in 0.1% Tween20), and hybridized with DIG-labeled riboprobes (hybridization buffer). Subsequently, the resulting product was reacted with an alkaline phosphatase (AP)-conjugated anti-DIG antibody. Following reaction with an AP staining solution, a staining status was observed and visualized under a microscope (Leica, MZ-16).

HUVECs [2] = assay: FACS analysis of FITC-RLYE binding to HUVECs; design: species or system human
Experimental: HUVECs were cultured in a 60-mm culture plate for 24 hours. The cells were isolated from the plate with 5 mM EDTA-containing phosphate-buffered saline (PBS), washed with PBS three times, and suspended in 2% FBS/0.1% bovine serum albumin-containing PBS. Afterward, before or after the reaction with FITC-conjugated RLYE (SEQ ID NO: 2) (15 nM), the cells were treated with VEGF (100 ng/ml), stored on ice for 30 minutes, fixed in 2% paraformaldehyde, and assessed with a fluorescence activated cell sorter (FACS Calibur, Becton Dickinson) by flow cytometry.

Compound | pIC50 (HUVECs [1]) | inhibition of VEGF-induced HUVEC proliferation (HUVECs [1]) | inhibition of VEGF-induced ERK phosphorylation (ERK) | further results
CC(C)C[C@H](NC(=O)[C@@H](N)CCCCN)C(=O)N[C@@H](Cc1ccc(O)cc1)C(=O)N[C@@H](CC(=O)O)C(=O)O [KLYD, reference compound] (H-KLYD-OH; N-terminus and C-terminus assumed) | 9.10 | significantly inhibited | – | –
CC(C)C[C@H](NC(=O)[C@@H](N)CCCCN)C(=O)N[C@@H](Cc1ccc(O)cc1)C(=O)N[C@@H](CCC(=O)O)C(=O)O [KLYE] (H-KLYE-OH; N-terminus and C-terminus assumed) | 9.52 | effectively inhibited | more effectively inhibited | –
CC(C)C[C@H](NC(=O)[C@@H](N)CCCNC(=N)N)C(=O)N[C@@H](Cc1ccc(O)cc1)C(=O)N[C@@H](CC(=O)O)C(=O)O [RLYD] (H-RLYD-OH; N-terminus and C-terminus assumed) | 9.85 | effectively inhibited | more effectively inhibited | –
CC(C)[C@H](NC(=O)[C@@H](N)CCCNC(=N)N)C(=O)N[C@@H](Cc1ccc(O)cc1)C(=O)N[C@@H](CCC(=O)O)C(=O)O [RVYE] (H-RVYE-OH; N-terminus and C-terminus assumed) | 9.41 | effectively inhibited | more effectively inhibited | –
EYLR: scrambled peptide against RLYE, used as a control [reference compound] | – | did not exhibit a significant inhibitory effect | – | formation of intersegmental vessels (ISV) (zebrafish): did not affect the ISV formation; formation of subintestinal vessels (SIV) (zebrafish): did not affect the SIV formation
FITC-RLYE: FITC-conjugated RLYE (SEQ ID NO: 2) peptide used for FACS and confocal binding ({FITC}-RLYE) | – | – | – | binding to HUVEC surface (FACS) (HUVECs [2]; VEGF-A-pretreated cells): did not bind; binding to HUVEC surface (FACS) (HUVECs [2]; cells not treated with VEGF-A): bound to a cell surface
KIYD: synthesized tetrapeptide based on KLYD | – | inhibitory effect similar to the positive control | – | –
KLFD: synthesized tetrapeptide based on KLYD | – | inhibitory effect similar to the positive control | – | –
KLWD: synthesized tetrapeptide based on KLYD | – | did not exhibit a significant inhibitory effect | – | –
RLME: synthesized tetrapeptide based on KLYD | – | did not exhibit a significant inhibitory effect | – | –
